# Results published in patent US11319303B2 (WIGEN BIOMEDICINE TECHNOLOGY (SHANGHAI) CO., LTD., priority 2017, dated 2022).
# Target: LC3B (Homo sapiens, UniProt Q9GZQ8)
# Assay: Fluorescence Polarization (FP) Assay: displacement of FITC-labeled peptide from GST-LC3B
# Assay type: binding
# Conditions: Fluorescence Polarization assay; GST-LC3B 180 nM, FITC-labeled peptide 18 nM, 25° C.; read-out: IC50
# Experimental: The compounds of the present invention for regulating the autophagy-related protein LC3B were tested by Fluorescence Polarization (FP) Assay.
# Fluorescence Polarization (FP) Assay Test
row,IC50,Compound
1,< 3 µM,"CN(C)CCNC=C1C(=O)CC(c2ccc(-c3ccccc3)s2)CC1=O (stereo not shown) [Compound 367, 2-(((2-(dimethylamino)ethyl)amino)methylene)-5-(5-phenylthiophen-2-yl)cyclohexane-1,3-dione]"
2,100 to 1000 µM,"O=C1CC(c2ccccc2)CC(=O)C1=CNC1CCC(O)CC1 (stereo not shown) [Compound 136, 2-(((4-hydroxycyclohexyl)amino)methylene)-5-phenylcyclohexane-1,3-dione]"
3,< 3 µM,"CN(C)CCNC=C1C(=O)CC(c2cccc([N+](=O)[O-])c2)CC1=O (stereo not shown) [Compound 311, 2-(((2-(dimethylamino)ethyl)amino)methylene)-5-(3-nitrophenyl) cyclohexane-1,3-dione]"
4,< 3 µM,"O=C1CC(c2ccccc2C2CC2)CC(=O)C1=CNCCN1CCN(CCO)CC1 (stereo not shown) [Compound 189, 5-(2-cyclopropylphenyl)-2-(((2-(4-(2-hydroxyethyl)piperazin-1-yl)ethyl)amino)methylene) cyclohexane-1,3-dione]"

# The remaining lines, values behind:
row,Compound,IC50
1,O=C1CC([C@]23C[C@H]4C[C@H](C[C@H](C4)C2)C3)CC(=O)C1=CNCCN1CCN(CCO)CC1 (stereo partly shown) [Compound 78],15 to 100 µM
2,COCCOCCOc1ccccc1C1CC(=O)C(=CNCCN2CCN(CCO)CC2)C(=O)C1 (stereo not shown) [Compound 41],3 to 15 µM
3,"Cn1cccc1C1CC(=O)C(=CNCCN2CCN(CCO)CC2)C(=O)C1 (stereo not shown) [Compound 55, 2-(((2-(4-(2-hydroxyethyl)piperazin-1-yl)ethyl)amino)methylene)-5-(1-methyl-1H-pyrrol-2-yl)cyclohexane-1,3-dione]",15 to 100 µM
